# According to patent US12493040B2, “Cancer detection method using sense of smell of nematode” (HIROTSU BIO SCIENCE INC., priority 2013, dated 2025):
# Test system: RNAi-treated eri-1 (mg366) nematodes
# Experiment: RNAi screening of olfactory receptor genes: chemotaxis assay of RNAi-treated nematodes to odorants
# Type: in vivo, Caenorhabditis elegans
# Details: repellent or high concentration of attractant
# In short: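 Chemotaxis of adult RNAi-fed eri-1 (mg366) nematodes (30–50 per test) was measured toward low (1 μl, 10^−3 or 10^−4 dilution) or high (1 and 5 μl neat) odorant doses. Knockdown: 4 days feeding on E. coli from Ahringer library with IPTG and ampicillin. Differences called by z score at ±1.96, weaker cutoff ±0.96.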
smiles,measurement,setting,value
CCCCCCCCO [octanol],chemotaxis index,Control nematodes,−0.68 ± 0.018
same,chemotaxis index,srh-4 RNAi-treated nematodes,−0.17
same,chemotaxis index,srh-7 RNAi-treated nematodes,−0.65
same,chemotaxis index,srh-8 RNAi-treated nematodes,−0.80
same,chemotaxis index,srh-10 RNAi-treated nematodes,−0.45
same,chemotaxis index,srh-11 RNAi-treated nematodes,−0.19
same,chemotaxis index,srh-15 RNAi-treated nematodes,−0.85
same,chemotaxis index,srh-16 RNAi-treated nematodes,−0.89
same,chemotaxis index,srh-18 RNAi-treated nematodes,−0.65
same,chemotaxis index,srh-19 RNAi-treated nematodes,−0.33
same,chemotaxis index,srh-22 RNAi-treated nematodes,−0.48
same,chemotaxis index,srh-23 RNAi-treated nematodes,−0.90
same,chemotaxis index,srh-24 RNAi-treated nematodes,−0.56
same,chemotaxis index,srh-25 RNAi-treated nematodes,−0.90
same,chemotaxis index,srh-27 RNAi-treated nematodes,−0.68
same,chemotaxis index,srh-28 RNAi-treated nematodes,−0.73
same,chemotaxis index,srh-36 RNAi-treated nematodes,−0.72
same,chemotaxis index,srh-37 RNAi-treated nematodes,−0.88
same,chemotaxis index,srh-39 RNAi-treated nematodes,−0.50
same,chemotaxis index,srh-40 RNAi-treated nematodes,−0.92
same,chemotaxis index,srh-41 RNAi-treated nematodes,−0.80
same,chemotaxis index,srh-44 RNAi-treated nematodes,−0.52
same,chemotaxis index,srh-45 RNAi-treated nematodes,−0.87
same,chemotaxis index,srh-46 RNAi-treated nematodes,−0.87
same,chemotaxis index,srh-48 RNAi-treated nematodes,−0.83
same,chemotaxis index,srh-49 RNAi-treated nematodes,−0.57
same,chemotaxis index,srh-50 RNAi-treated nematodes,−0.89
same,chemotaxis index,srh-51 RNAi-treated nematodes,−0.89
same,chemotaxis index,srh-52 RNAi-treated nematodes,−0.79
same,chemotaxis index,srh-55 RNAi-treated nematodes,−0.95
same,chemotaxis index,srh-59 RNAi-treated nematodes,−0.55
same,chemotaxis index,srh-60 RNAi-treated nematodes,−0.52
same,chemotaxis index,srh-61 RNAi-treated nematodes,−0.77
same,chemotaxis index,srh-67 RNAi-treated nematodes,−0.66
same,chemotaxis index,srh-68 RNAi-treated nematodes,−0.79
same,chemotaxis index,srh-69 RNAi-treated nematodes,−0.61
same,chemotaxis index,srh-70 RNAi-treated nematodes,−0.80
same,chemotaxis index,srh-71 RNAi-treated nematodes,−0.60
same,chemotaxis index,srh-72 RNAi-treated nematodes,−0.62
same,chemotaxis index,srh-74 RNAi-treated nematodes,−0.89
same,chemotaxis index,srh-75 RNAi-treated nematodes,−0.59
same,chemotaxis index,srh-77 RNAi-treated nematodes,−0.31
same,chemotaxis index,srh-79 RNAi-treated nematodes,−0.17
same,chemotaxis index,srh-80 RNAi-treated nematodes,−0.39
same,chemotaxis index,srh-82 RNAi-treated nematodes,−0.65
same,chemotaxis index,srh-83 RNAi-treated nematodes,−0.33
same,chemotaxis index,srh-97 RNAi-treated nematodes,−0.64
same,chemotaxis index,srh-99 RNAi-treated nematodes,−0.61
same,chemotaxis index,srh-100 RNAi-treated nematodes,−0.46
same,chemotaxis index,srh-104 RNAi-treated nematodes,−0.36
same,chemotaxis index,srh-105 RNAi-treated nematodes,−0.61
same,chemotaxis index,srh-109 RNAi-treated nematodes,−0.91
same,chemotaxis index,srh-111 RNAi-treated nematodes,−0.44
same,chemotaxis index,srh-113 RNAi-treated nematodes,−0.43
same,chemotaxis index,srh-115 RNAi-treated nematodes,−0.82
same,chemotaxis index,srh-116 RNAi-treated nematodes,−0.82
same,chemotaxis index,srh-118 RNAi-treated nematodes,−0.37
same,chemotaxis index,srh-119 RNAi-treated nematodes,−0.35
same,chemotaxis index,srh-120 RNAi-treated nematodes,−0.37
same,chemotaxis index,srh-122 RNAi-treated nematodes,−0.61
same,chemotaxis index,srh-123 RNAi-treated nematodes,−0.32
same,chemotaxis index,srh-125 RNAi-treated nematodes,−0.56
same,chemotaxis index,srh-128 RNAi-treated nematodes,−0.47
same,chemotaxis index,srh-129 RNAi-treated nematodes,−0.56
same,chemotaxis index,srh-130 RNAi-treated nematodes,−0.68
same,chemotaxis index,srh-131 RNAi-treated nematodes,−0.49
same,chemotaxis index,srh-132 RNAi-treated nematodes,−0.19
same,chemotaxis index,srh-139 RNAi-treated nematodes,−0.73
same,chemotaxis index,srh-140 RNAi-treated nematodes,−0.78
same,chemotaxis index,srh-141 RNAi-treated nematodes,−0.49
same,chemotaxis index,srh-142 RNAi-treated nematodes,−0.59
same,chemotaxis index,srh-145 RNAi-treated nematodes,−0.64
same,chemotaxis index,srh-148 RNAi-treated nematodes,−0.67
same,chemotaxis index,srh-154 RNAi-treated nematodes,−0.65
same,chemotaxis index,srh-159 RNAi-treated nematodes,−0.79
same,chemotaxis index,srh-165 RNAi-treated nematodes,−0.49
same,chemotaxis index,srh-166 RNAi-treated nematodes,−0.74
same,chemotaxis index,srh-167 RNAi-treated nematodes,−0.28
same,chemotaxis index,srh-169 RNAi-treated nematodes,−0.62
same,chemotaxis index,srh-174 RNAi-treated nematodes,−0.45
same,chemotaxis index,srh-179 RNAi-treated nematodes,−0.60
same,chemotaxis index,srh-182 RNAi-treated nematodes,−0.86
same,chemotaxis index,srh-186 RNAi-treated nematodes,−0.64
same,chemotaxis index,srh-190 RNAi-treated nematodes,−0.64
same,chemotaxis index,srh-193 RNAi-treated nematodes,−0.92
same,chemotaxis index,srh-195 RNAi-treated nematodes,−0.47
same,chemotaxis index,srh-201 RNAi-treated nematodes,−0.93
same,chemotaxis index,srh-203 RNAi-treated nematodes,−0.95
same,chemotaxis index,srh-204 RNAi-treated nematodes,−0.90
same,chemotaxis index,srh-206 RNAi-treated nematodes,−0.94
same,chemotaxis index,srh-207 RNAi-treated nematodes,−0.81
same,chemotaxis index,srh-208 RNAi-treated nematodes,−0.60
same,chemotaxis index,srh-209 RNAi-treated nematodes,−0.85
same,chemotaxis index,srh-210 RNAi-treated nematodes,−0.77
same,chemotaxis index,srh-214 RNAi-treated nematodes,−0.98
same,chemotaxis index,srh-216 RNAi-treated nematodes,−0.68
same,chemotaxis index,srh-217 RNAi-treated nematodes,−0.82
same,chemotaxis index,srh-220 RNAi-treated nematodes,−0.47
same,chemotaxis index,srh-222 RNAi-treated nematodes,−0.77
same,chemotaxis index,srh-223 RNAi-treated nematodes,−0.75
